Reference: patent US6653081B2, “Methods for monitoring antiretroviral therapy and guiding therapeutic decision in the treatment of HIV/AIDS” (ViroLogic, Inc., priority 2000, dated 2003)

Key:
[1] = system: RTV-1033-3/184V; experiment: Phenotypic susceptibility assay, RTV-1033-3/184V; assay type: cell-based, HIV; conditions: RTV-1033-3 plus M184V
Excerpt: (§1) The resistance test vectors containing a functional luciferase gene cassette were constructed and host cells were transfected with the resistance test vector DNA. The resistant test vectors contained patient-derived reverse transcriptase and protease sequences that were either susceptible or resistant to the antiretroviral agents, such as nucleoside reverse transcriptase inhibitors, (NRTIs) non-nucleoside reverse transcriptase inhibitors […] protease inhibitors. The resistance test vector viral particles produced by transfecting the resistance test vector DNA into host cells, either in the presence or absence of PRIs, were used to infect target host cells grown either in the absence of NRTIs or NNRTIs, or in the presence of increasing concentrations of the drug. The amount of luciferase activity produced in infected target host cells in the presence of varying concentrations of drug was compared to the amount of luciferase produced in infected target host cells in the absence of drug. “Drug resistance” was measured as the amount of drug required to inhibit by 50% the luciferase activity detected in the absence of drug (inhibitory concentration 50%, IC50). The IC50 values were determined by plotting percent drug inhibition vs. log10 drug concentration. Stimulation of viral replication was measured as the percent increase in luciferase activity detected when infection occurs in the presence of drug as compared to in the absence of drug.
(§2) Host cells were seeded in 10-cm-diameter dishes and were transfected several days after plating with resistance test vector plasmid DNA and the envelope expression vector. Transfections were performed using a calcium-phosphate precipitation procedure. The cell culture media containing the DNA precipitate was replaced with fresh medium, from one to 24 hours, after transfection. Cell culture media containing resistance test vector viral particles was harvested one to four days after transfection and was passed through a […] filter before being used to infect target host cells, or being stored at −80° C. HIV capsid protein (p24) levels in the harvested cell culture media were determined by an EIA method as described by the manufacturer (SAIC; Frederick, Md.). Before infection, target cells (293 and 293/T) were plated in cell culture media. Control infections were performed using cell culture media from mock transfections (no DNA) or transfections containing the resistance test vector plasmid DNA without the envelope expression plasmid. One to three or more days after infection, the media was removed and cell lysis buffer (Promega) was added to each well. Cell lysates were assayed for luciferase activity (FIG. 3). The inhibitory effect of the drug was determined using the following equation:
(§3) % luciferase inhibition=1−(RLUluc[drug]÷RLUluc)×100
(§4) where RLUluc [drug] is the Relative Light Unit of luciferase activity in infected cells in the presence of drug, and RLUluc is the Relative Light Unit of luciferase activity in infected cells in the absence of drug. IC50values were obtained from the sigmoidal curves that were generated from the data by plotting the percent inhibition of luciferase activity vs. the log10 drug concentration. The percent luciferase stimulation is the negative of the % inhibition calculated using the formula above.
A resistance test vector containing all of the mutations present in RTV-1033-3 in addition to M184V (RTV-1033-3/184V) was constructed and tested using the phenotypic assay described earlier. The results were compared to those determined using the parent RTV-1033-3. We determined the pattern of phenotypic susceptibility to the NNRTIs, delavirdine, nevirapine and efavirenz, in the mutated vector, RTV-1033-3/184V.

[2] = system: RTV-013415; experiment: Phenotypic susceptibility assay, RTV-013415; assay type: cell-based, HIV; conditions: patient 013415; for decrease in susceptibility: V245M with multiple other mutations
Excerpt: as §1, §2, §3, §4
(§5) A resistance test vector was constructed as described in Example 1 from a virus sample obtained from patient 013415. The prior and current treatment regimens are unknown. Isolation of viral RNA and RT/PCR was used to generate a patient derived segment (PDS) that comprised viral sequences coding for all of PR and aa 1-313 of RT. The PDS were inserted into an indicator gene viral vector to generate a resistance test vector designated RTV-013415. RTV-013415 was then tested in a phenotypic assay to determine accurately and quantitatively the level of susceptibility to a panel of anti-retroviral drugs. […]

[3] = system: RTV-010835; experiment: Phenotypic susceptibility assay, RTV-010835; assay type: cell-based, HIV; conditions: patient CCTG-2165, week 15; K103N and M230L present
Excerpt: The resistance test vectors containing a functional luciferase gene cassette were constructed and host cells were transfected with the resistance test vector DNA. The resistant test vectors contained patient-derived reverse transcriptase and protease sequences that were either susceptible or resistant to the antiretroviral agents, such as nucleoside reverse transcriptase inhibitors, (NRTIs) non-nucleoside reverse transcriptase inhibitors […] protease inhibitors. The resistance test vector viral particles produced by transfecting the resistance test vector DNA into host cells, either in the presence or absence of PRIs, were used to infect target host cells grown either in the absence of NRTIs or NNRTIs, or in the presence of increasing concentrations of the drug. The amount of luciferase activity produced in infected target host cells in the presence of varying concentrations of drug was compared to the amount of luciferase produced in infected target host cells in the absence of drug. […] The IC50 values were determined by plotting percent drug inhibition vs. log10 drug concentration. Stimulation of viral replication was measured as the percent increase in luciferase activity detected when infection occurs in the presence of drug as compared to in the absence of drug.
Host cells were seeded in 10-cm-diameter dishes and were transfected several days after plating with resistance test vector plasmid DNA and the envelope expression vector. […] HIV capsid protein (p24) levels in the harvested cell culture media were determined by an EIA method as described by the manufacturer (SAIC; Frederick, Md.). […] The inhibitory effect of the drug was determined using the following equation: […]
where RLUluc [drug] is the Relative Light Unit of luciferase activity in infected cells in the presence of drug, and RLUluc is the Relative Light Unit of luciferase activity in infected cells in the absence of drug. […] The percent luciferase stimulation is the negative of the % inhibition calculated using the formula above. […]

[4] = system: RTV-1033-3/106V/189V/227F; experiment: Phenotypic susceptibility assay, RTV-1033-3/106V/189V/227F; assay type: cell-based, HIV; conditions: RTV-1033-3 with V106A, V189L and F227L reverted
Excerpt: as §1, §2, §3, §4
A resistance test vector containing all of the mutations present in RTV-1033-3 except for V106A, V189L and F227L (RTV-1033-3/106V/189V/227F) was constructed and tested using the phenotypic assay described earlier. The results were compared to those determined using the parent RTV-1033-3. We determined the pattern of phenotypic susceptibility to the NNRTIs, delavirdine, nevirapine and efavirenz, in the reverted vector, RTV-1033-3/106V/189V/227F.

[5] = system: RTV-V241S; experiment: Phenotypic susceptibility assay, RTV-V241S; assay type: cell-based, HIV-1; conditions: site-directed V241S alone
Excerpt: as §1, §2, §3, §4
A resistance test vector containing all of the mutations present in RTV-011073 except for the V241S and the T277K was constructed and tested using the phenotypic assay described earlier. The results were compared to those determined using the parent RTV-011073. We determined the pattern of phenotypic susceptibility to the NNRTIs, delavirdine, nevirapine and efavirenz, in the reverted vector RTV-011073/241V/277T. […] A resistance test vector containing all of the mutations present in RTV-011073 except for the V241S was constructed and tested using the phenotypic assay described earlier. The results were compared to those determined using the parent RTV-011073. […]

[6] = system: RTV-011073; experiment: Phenotypic susceptibility assay, RTV-011073; assay type: cell-based, HIV; conditions: patient 011073; for decrease in susceptibility: V241S, K103N, I135T
Excerpt: as §1, §2, §3, §4
as §5, with “011073.” for “013415.”, “was” for “were”, “RTV-011073. RTV-011073” for “RTV-013415. RTV-013415”

## CC(C)Nc1cccnc1N1CCN(C(=O)c2cc3cc(NS(C)(=O)=O)ccc3[nH]2)CC1 [delavirdine]
[1]
  drug-dependent stimulation of viral replication: ~100%
  reduction in susceptibility compared to wild type control RTV: 5 fold
[2]
  drug-dependent stimulation of viral replication: ~30%
  decrease in susceptibility: > 250 fold
[3]
  decrease in susceptibility: > 250 fold
[4]
  drug-dependent stimulation of viral replication: ~35%
  reductions in susceptibility compared to wild type control RTV: 2.7 fold
[5]
  drug-dependent stimulation of viral replication: ~25%
  reductions in susceptibility compared to wild type control RTV: 6 fold
[6]
  drug-dependent stimulation of viral replication: ~90%
  decrease in susceptibility: > 250 fold

## O=C1Nc2ccc(Cl)cc2[C@@](C#CC2CC2)(C(F)(F)F)O1 [efavirenz]
[1]
  drug-dependent stimulation of viral replication: ~80%
  reduction in susceptibility compared to wild type control RTV: 28 fold
[2]
  drug-dependent stimulation of viral replication: ~20%
  decrease in susceptibility: > 450 fold
[3]
  decrease in susceptibility: 270 fold
[4]
  drug-dependent stimulation of viral replication: ~30%
  reductions in susceptibility compared to wild type control RTV: 2 fold
[5]
  drug-dependent stimulation of viral replication: no drug-dependent stimulation
  reductions in susceptibility compared to wild type control RTV: 3 fold
[6]
  drug-dependent stimulation of viral replication: ~80%
  decrease in susceptibility: > 450 fold

## Cc1ccnc2c1NC(=O)c1cccnc1N2C1CC1 [nevirapine]
[1]
  drug-dependent stimulation of viral replication: ~100%
  reduction in susceptibility compared to wild type control RTV: > 600 fold
[2]
  drug-dependent stimulation of viral replication: ~20%
  decrease in susceptibility: > 600 fold
[3]
  decrease in susceptibility: > 600 fold
[4]
  drug-dependent stimulation of viral replication: ~40%
  reductions in susceptibility compared to wild type control RTV: 2.8 fold
[5]
  drug-dependent stimulation of viral replication: ~30%
  reductions in susceptibility compared to wild type control RTV: 9 fold
[6]
  drug-dependent stimulation of viral replication: ~70%
  decrease in susceptibility: > 600 fold
